Experiments:
[1] = Molar enthalpy of transition or fusion; details: Crystal; DSC
[2] = for vapor or sublimation pressure: Transpiration method; for Normal melting temperature: DTA

NC(=O)c1cccnc1 [3-pyridinecarboxamide]
Details | Molar enthalpy of transition or fusion [kcal/mol]
[1] | 5.71

[2], Crystal
Details | vapor or sublimation pressure [kPa]
353.2 K | 0.00036
358.3 K | 0.0006
363.4 K | 0.00104
363.5 K | 0.00105
370.6 K | 0.00207
378.6 K | 0.00436
383.8 K | 0.0069
388.8 K | 0.01096
394.9 K | 0.01844
398.9 K | 0.02467

Details | Normal melting temperature [°C]
[2], Crystal | 130.1

NC(=O)c1ccncc1 [4-pyridinecarboxamide]
Details | Molar enthalpy of transition or fusion [kcal/mol]
[1] | 5.52

[2], Crystal
Details | vapor or sublimation pressure [kPa]
358.2 K | 0.00043
363.3 K | 0.00072
368.4 K | 0.00117
373.4 K | 0.0019
373.5 K | 0.00191
378.5 K | 0.00296
383.7 K | 0.00472
388.7 K | 0.00724
393.8 K | 0.01115
398.8 K | 0.01672
404 K | 0.02482
409 K | 0.03719

Details | Normal melting temperature [°C]
[2], Crystal | 155.2

NC(=O)c1ccccn1 [2-pyridinecarboxamide]
Details | Molar enthalpy of transition or fusion [kcal/mol]
[1] | 4.59

[2]
Details | vapor or sublimation pressure [kPa]
343 K, Crystal | 0.0079
348 K, Crystal | 0.0125
353.1 K, Crystal | 0.0192
353.2 K, Crystal | 0.0194
358.2 K, Crystal | 0.0302
363.3 K, Crystal | 0.0459
368.3 K, Crystal | 0.0687
373.3 K, Crystal | 0.1028
385.4 K, Liquid | 0.2394
390.4 K, Liquid | 0.3199
395.5 K, Liquid | 0.416
400.6 K, Liquid | 0.5427
405.6 K, Liquid | 0.7049
410.7 K, Liquid | 0.9324
415.8 K, Liquid | 1.202

Details | Normal melting temperature [°C]
[2], Crystal | 106.4

Source: the NIST ThermoML archive (doi:10.1016/j.jct.2016.08.002)
